According to the supplement of paper PMC10307832:

How the values were obtained:
Experiment in all cases: relative viability (nuclei count vs DMSO), 5 days (fraction); higher = more cells survive
GSK-J4 + Alpelisib = compound: CCOC(=O)CCNc1cc(N2CCc3ccccc3CC2)nc(-c2ccccn2)n1 [GSK-J4] + Cc1nc(NC(=O)N2CCC[C@H]2C(N)=O)sc1-c1ccnc(C(C)(C)C(F)(F)F)c1 [Alpelisib] (partner 2 µM)
Summary of the method: (§1)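 After 5 days of treatment, lung cancer cells in 1536-well plates were fixed and stained in a single step (final 0.05% Triton X-100, 1% formaldehyde, 1 ug/ml Hoechst) and their nuclei counted on 4× images. Treatment had been applied by pin tool the day after seeding as one drug alone or as a fixed anchor-drug dose with five library-drug doses (not always all listed) in √10 steps. Relative viability is the nuclei count of treated wells divided by that of vehicle wells, and values are medians of duplicate plates.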

AZ3146 + Linsitinib = compound: CN1CCC(CC1)OC2=CC(=C(C=C2)NC3=NC=C4C(=N3)N(C(=O)N4C)C5CCCC5)OC [AZ3146] + C[C@]1(O)C[C@@H](c2nc(-c3ccc4ccc(-c5ccccc5)nc4c3)c3c(N)nccn32)C1 [Linsitinib] (partner 1 µM)
Summary of the method: as §1

AZ3146 + Dasatinib = compound: CN1CCC(CC1)OC2=CC(=C(C=C2)NC3=NC=C4C(=N3)N(C(=O)N4C)C5CCCC5)OC [AZ3146] + Cc1nc(Nc2ncc(C(=O)Nc3c(C)cccc3Cl)s2)cc(N2CCN(CCO)CC2)n1 [Dasatinib] (partner 0.075 µM)
Summary of the method: as §1

GSK-J4 + Vorinostat = compound: CCOC(=O)CCNc1cc(N2CCc3ccccc3CC2)nc(-c2ccccn2)n1 [GSK-J4] + O=C(CCCCCCC(=O)Nc1ccccc1)NO [Vorinostat] (partner 1 µM)
Summary of the method: as §1

## UMC-11
GSK-J4 + Alpelisib; first compound 0.5 µM
  relative viability: 0.932
GSK-J4 + Alpelisib; first compound 1.581 µM
  relative viability: 0.856
GSK-J4 + Alpelisib; first compound 5 µM
  relative viability: 1.06
GSK-J4 + Alpelisib; first compound 15.81 µM
  relative viability: 0.938
GSK-J4 + Alpelisib; first compound 50 µM
  relative viability: 0.607
AZ3146 + Linsitinib; first compound 0.08 µM
  relative viability: 0.989
AZ3146 + Linsitinib; first compound 0.253 µM
  relative viability: 1.05
AZ3146 + Linsitinib; first compound 0.8 µM
  relative viability: 0.992
AZ3146 + Linsitinib; first compound 2.53 µM
  relative viability: 0.922
AZ3146 + Linsitinib; first compound 8 µM
  relative viability: 0.577
AZ3146 + Dasatinib; first compound 0.08 µM
  relative viability: 0.426
AZ3146 + Dasatinib; first compound 0.253 µM
  relative viability: 0.562
AZ3146 + Dasatinib; first compound 0.8 µM
  relative viability: 0.463
AZ3146 + Dasatinib; first compound 2.53 µM
  relative viability: 0.452
AZ3146 + Dasatinib; first compound 8 µM
  relative viability: 0.257
GSK-J4 + Vorinostat; first compound 0.5 µM
  relative viability: 0.418
GSK-J4 + Vorinostat; first compound 1.581 µM
  relative viability: 0.364
GSK-J4 + Vorinostat; first compound 5 µM
  relative viability: 0.492
GSK-J4 + Vorinostat; first compound 15.81 µM
  relative viability: 0.437
GSK-J4 + Vorinostat; first compound 50 µM
  relative viability: 0.187
